Assay results as given in ChEMBL document CHEMBL4145597, “BMS-986163, a Negative Allosteric Modulator of GluN2B with Potential Utility in Major Depressive Disorder” (ACS Med Chem Lett, 2018).
One block for each compound: values may come before it. The source made the active and inactive calls. No cut-off for these calls is given here.

Key:
Mus musculus [1] = assay: Ex vivo receptor occupancy at GluN2B receptor in CD-1 mouse forebrain membranes assessed as reduction in [3H]Ro 25-6981 receptor labeling at 3 mg/kg, iv incubated for 5 mins by topcount micro scintillation counting method; format: functional
[2] = Plasma concentration in CD-1 mouse at 0.1 to 1 mg/kg, iv; format: ADME, organism-based; conditions: in vivo
[3] = biological target: Voltage-gated inwardly rectifying potassium channel KCNH2 (Homo sapiens, UniProt Q12809); assay: Inhibition of human ERG expressed in HEK293 cells assessed as reduction in peak tail current after 2 to 5 mins by patch clamp based electrophysiology assay; format: cell-based
Voltage-gated inwardly rectifying potassium channel KCNH2, sequence (Q12809 whole entry): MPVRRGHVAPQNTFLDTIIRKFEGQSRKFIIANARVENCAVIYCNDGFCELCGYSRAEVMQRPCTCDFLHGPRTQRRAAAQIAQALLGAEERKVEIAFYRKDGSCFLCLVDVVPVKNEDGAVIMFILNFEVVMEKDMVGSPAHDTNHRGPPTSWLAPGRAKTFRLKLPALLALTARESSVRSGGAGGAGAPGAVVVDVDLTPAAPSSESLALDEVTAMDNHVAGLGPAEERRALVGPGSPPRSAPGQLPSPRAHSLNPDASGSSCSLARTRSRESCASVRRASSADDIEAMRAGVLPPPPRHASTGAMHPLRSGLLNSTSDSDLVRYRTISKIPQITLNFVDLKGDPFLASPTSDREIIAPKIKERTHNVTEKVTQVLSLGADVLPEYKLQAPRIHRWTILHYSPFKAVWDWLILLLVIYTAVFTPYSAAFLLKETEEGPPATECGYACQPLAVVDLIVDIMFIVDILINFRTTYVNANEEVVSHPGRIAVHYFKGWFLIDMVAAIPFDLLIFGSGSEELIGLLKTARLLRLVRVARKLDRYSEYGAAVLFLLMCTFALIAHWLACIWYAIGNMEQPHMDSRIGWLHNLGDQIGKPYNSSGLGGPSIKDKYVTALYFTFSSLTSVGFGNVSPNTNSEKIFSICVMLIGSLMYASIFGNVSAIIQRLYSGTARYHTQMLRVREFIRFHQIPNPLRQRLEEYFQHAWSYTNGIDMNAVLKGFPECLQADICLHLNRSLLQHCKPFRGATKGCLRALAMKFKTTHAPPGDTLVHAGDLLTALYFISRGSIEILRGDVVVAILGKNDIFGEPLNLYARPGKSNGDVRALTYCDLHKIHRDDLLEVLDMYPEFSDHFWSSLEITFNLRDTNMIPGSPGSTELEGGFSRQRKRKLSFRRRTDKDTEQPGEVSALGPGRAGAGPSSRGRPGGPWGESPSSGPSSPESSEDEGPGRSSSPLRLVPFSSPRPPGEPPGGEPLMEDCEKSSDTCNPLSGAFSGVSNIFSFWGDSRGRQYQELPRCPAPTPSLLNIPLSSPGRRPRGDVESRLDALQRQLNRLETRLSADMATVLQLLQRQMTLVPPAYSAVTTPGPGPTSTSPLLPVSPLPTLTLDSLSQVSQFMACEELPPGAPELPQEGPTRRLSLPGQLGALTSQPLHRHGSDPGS

[4] = biological target: Glutamate receptor ionotropic, NMDA 2C (Homo sapiens) (UniProt Q14957); assay: Negative allosteric modulation of human GluN2C receptor expressed in Xenopus laevis oocytes assessed as inhibition of glutamate/glycine-induced channel current at 3 uM after 10 to 15 mins by two electrode voltage clamp based electrophysiology assay; format: cell-based
[5] = biological target: Glutamate receptor ionotropic, NMDA 2D (Homo sapiens) (UniProt O15399); assay: Negative allosteric modulation of human GluN2D receptor expressed in Xenopus laevis oocytes assessed as inhibition of glutamate/glycine-induced channel current at 3 uM after 10 to 15 mins by two electrode voltage clamp based electrophysiology assay; format: cell-based
[6] = biological target: Glutamate receptor ionotropic, NMDA 2B (Homo sapiens, UniProt Q13224); assay: (§1) Negative allosteric modulation of human GluN2B receptor expressed in Xenopus laevis oocytes assessed as inhibition of glutamate/glycine-induced channel current after 15 to 20 mins by two electrode voltage clamp based electrophysiology assay; format: cell-based
[7] = biological target: Glutamate receptor ionotropic, NMDA 2A (Homo sapiens) (UniProt Q12879); assay: Negative allosteric modulation of human GluN2A receptor expressed in Xenopus laevis oocytes assessed as inhibition of glutamate/glycine-induced channel current at 3 uM after 10 to 15 mins by two electrode voltage clamp based electrophysiology assay; format: cell-based
[8] = biological target: Glutamate receptor ionotropic, NMDA 2B (Rattus norvegicus, UniProt Q00960); assay: Displacement of [3H]Ro 25-6981 from GluN2B receptor in Sprague-Dawley rat forebrain membranes incubated for 1 hr by topcount micro scintillation counting method; parameters: species or system Membrane
Glutamate receptor ionotropic, NMDA 2B (Rattus norvegicus, UniProt Q00960), sequence (Q00960 whole entry): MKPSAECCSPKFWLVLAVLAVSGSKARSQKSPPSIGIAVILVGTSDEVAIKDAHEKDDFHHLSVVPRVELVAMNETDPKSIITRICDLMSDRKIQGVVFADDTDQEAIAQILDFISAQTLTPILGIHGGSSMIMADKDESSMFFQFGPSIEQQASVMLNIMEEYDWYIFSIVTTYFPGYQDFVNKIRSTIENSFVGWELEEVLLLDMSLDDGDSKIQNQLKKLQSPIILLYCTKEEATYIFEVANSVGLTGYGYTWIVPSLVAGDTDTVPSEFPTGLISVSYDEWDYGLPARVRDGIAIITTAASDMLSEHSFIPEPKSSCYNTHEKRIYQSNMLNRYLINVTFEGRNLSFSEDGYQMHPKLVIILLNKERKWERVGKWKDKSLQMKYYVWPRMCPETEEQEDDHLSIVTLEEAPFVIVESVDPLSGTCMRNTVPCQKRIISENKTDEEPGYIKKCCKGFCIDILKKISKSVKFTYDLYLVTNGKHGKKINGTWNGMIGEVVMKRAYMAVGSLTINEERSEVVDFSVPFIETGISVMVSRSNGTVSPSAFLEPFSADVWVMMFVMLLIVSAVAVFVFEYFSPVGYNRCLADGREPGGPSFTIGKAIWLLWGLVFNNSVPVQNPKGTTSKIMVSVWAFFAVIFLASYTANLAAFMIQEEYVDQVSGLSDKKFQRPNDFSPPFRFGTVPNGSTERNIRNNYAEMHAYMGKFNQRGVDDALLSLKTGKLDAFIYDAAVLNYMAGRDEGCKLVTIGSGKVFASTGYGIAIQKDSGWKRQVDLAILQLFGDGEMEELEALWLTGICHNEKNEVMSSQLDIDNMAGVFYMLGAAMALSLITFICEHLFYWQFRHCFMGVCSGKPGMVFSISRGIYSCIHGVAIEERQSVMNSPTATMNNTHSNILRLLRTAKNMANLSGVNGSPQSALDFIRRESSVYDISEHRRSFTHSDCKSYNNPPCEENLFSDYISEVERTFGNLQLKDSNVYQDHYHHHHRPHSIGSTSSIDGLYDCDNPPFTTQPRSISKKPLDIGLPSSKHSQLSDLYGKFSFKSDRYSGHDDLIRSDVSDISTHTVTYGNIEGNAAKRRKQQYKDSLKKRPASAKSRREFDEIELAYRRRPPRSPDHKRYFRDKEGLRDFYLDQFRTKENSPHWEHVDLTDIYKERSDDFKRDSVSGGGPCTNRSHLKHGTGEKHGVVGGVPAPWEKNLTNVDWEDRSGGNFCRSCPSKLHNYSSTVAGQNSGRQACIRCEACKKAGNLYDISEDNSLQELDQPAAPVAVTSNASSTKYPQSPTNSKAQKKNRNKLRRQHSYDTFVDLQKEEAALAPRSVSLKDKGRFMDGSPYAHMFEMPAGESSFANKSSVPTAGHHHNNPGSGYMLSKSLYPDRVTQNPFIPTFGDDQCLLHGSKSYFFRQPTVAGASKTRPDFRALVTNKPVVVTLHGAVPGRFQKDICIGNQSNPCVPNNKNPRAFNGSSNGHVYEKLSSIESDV

[9] = Dissociation constant, pKa of the compound by spectrophotometric method; format: physicochemical
Mus musculus [10] = assay: Ex vivo receptor occupancy at GluN2B receptor in CD-1 mouse forebrain membranes assessed as reduction in [3H]Ro 25-6981 receptor labeling at 0.3 mg/kg, iv incubated for 5 mins by topcount micro scintillation counting method; format: functional
[11] = Plasma concentration in CD-1 mouse at 0.3 mg/kg, iv; format: ADME, organism-based; conditions: in vivo
[12] = Fraction unbound in human plasma; format: ADME, cell-free
[13] = biological target: Glutamate receptor ionotropic, NMDA 2B (Homo sapiens, UniProt Q05586+Q13224); assay: as §1; format: cell-based
Glutamate receptor ionotropic, NMDA 2B (Homo sapiens, UniProt Q05586+Q13224), sequence (Q13224 whole entry, one chain of several): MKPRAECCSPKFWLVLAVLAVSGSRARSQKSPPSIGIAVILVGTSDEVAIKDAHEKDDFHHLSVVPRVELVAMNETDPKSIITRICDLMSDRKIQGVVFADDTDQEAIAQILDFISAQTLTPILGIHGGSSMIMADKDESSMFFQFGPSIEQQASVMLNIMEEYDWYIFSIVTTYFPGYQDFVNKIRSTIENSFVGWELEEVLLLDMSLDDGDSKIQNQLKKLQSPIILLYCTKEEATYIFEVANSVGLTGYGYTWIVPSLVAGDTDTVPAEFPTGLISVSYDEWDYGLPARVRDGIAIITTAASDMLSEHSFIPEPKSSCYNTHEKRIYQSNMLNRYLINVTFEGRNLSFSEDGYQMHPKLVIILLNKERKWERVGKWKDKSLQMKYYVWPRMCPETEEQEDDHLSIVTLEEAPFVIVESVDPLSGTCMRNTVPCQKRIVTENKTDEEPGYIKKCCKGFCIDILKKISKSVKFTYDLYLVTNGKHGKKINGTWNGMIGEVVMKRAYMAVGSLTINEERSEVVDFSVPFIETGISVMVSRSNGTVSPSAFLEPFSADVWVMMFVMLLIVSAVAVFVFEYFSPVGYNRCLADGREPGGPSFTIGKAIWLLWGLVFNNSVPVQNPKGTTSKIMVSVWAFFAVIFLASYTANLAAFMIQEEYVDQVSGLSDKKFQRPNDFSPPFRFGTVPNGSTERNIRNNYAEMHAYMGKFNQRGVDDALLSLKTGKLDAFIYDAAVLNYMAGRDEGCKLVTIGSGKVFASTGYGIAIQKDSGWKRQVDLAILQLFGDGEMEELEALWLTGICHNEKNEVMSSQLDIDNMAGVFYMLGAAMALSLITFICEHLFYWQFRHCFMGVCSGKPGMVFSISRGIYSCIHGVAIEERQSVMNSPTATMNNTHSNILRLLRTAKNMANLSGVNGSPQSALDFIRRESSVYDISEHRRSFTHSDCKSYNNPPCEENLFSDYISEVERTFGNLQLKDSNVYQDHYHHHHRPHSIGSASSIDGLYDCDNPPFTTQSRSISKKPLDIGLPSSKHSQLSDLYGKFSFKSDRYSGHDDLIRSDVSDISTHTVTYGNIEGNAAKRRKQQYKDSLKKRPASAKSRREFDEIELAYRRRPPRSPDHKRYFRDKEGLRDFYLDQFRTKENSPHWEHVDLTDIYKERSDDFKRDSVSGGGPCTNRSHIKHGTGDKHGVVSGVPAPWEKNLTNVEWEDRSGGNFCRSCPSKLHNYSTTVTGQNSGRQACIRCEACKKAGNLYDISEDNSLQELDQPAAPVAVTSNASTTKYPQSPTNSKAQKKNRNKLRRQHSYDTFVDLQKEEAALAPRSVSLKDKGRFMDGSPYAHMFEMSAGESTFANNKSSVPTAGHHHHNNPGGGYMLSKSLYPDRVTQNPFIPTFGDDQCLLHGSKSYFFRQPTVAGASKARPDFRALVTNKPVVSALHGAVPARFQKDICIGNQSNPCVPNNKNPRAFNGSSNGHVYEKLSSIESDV

Mus musculus [14] = assay: Ex vivo receptor occupancy at GluN2B receptor in CD-1 mouse forebrain membranes assessed as reduction in [3H]Ro 25-6981 receptor labeling administered iv incubated for 5 mins by topcount micro scintillation counting method; format: functional, organism-based; conditions: Membrane
[15] = Plasma concentration in CD-1 mouse at 1 mg/kg, iv; format: ADME, organism-based; conditions: in vivo
Mus musculus [16] = assay: Ex vivo receptor occupancy at GluN2B receptor in CD-1 mouse forebrain membranes assessed as reduction in [3H]Ro 25-6981 receptor labeling at 1 mg/kg, iv incubated for 5 mins by topcount micro scintillation counting method; format: functional
Mus musculus [17] = assay: Antidepressant activity in CD-1 mouse assessed as decrease in immobility time administered iv 15 mins prior to test measured for 6 mins observation by forced swim test; format: functional
Mus musculus [18] = assay: Ex vivo receptor occupancy at GluN2B receptor in CD-1 mouse forebrain membranes assessed as reduction in [3H]Ro 25-6981 receptor labeling at 0.1 to 1 mg/kg, iv incubated for 5 mins by topcount micro scintillation counting method; format: functional
[19] = Fraction unbound in mouse plasma; format: ADME, cell-free
[20] = Fraction unbound in rat plasma; format: ADME, cell-free

concentration [2]: 710 nM
SMILES: Cc1ccc(CN2CC[C@@H](N3CC[C@H](c4ccc(O)cc4)[C@@H](F)C3)C2=O)cc1
Occ (Mus musculus [1]): 87%
IC50 [3]: > 30000 nM

inhibition [4]: inactive
inhibition [5]: inactive
inhibition [6]: inactive
inhibition [7]: inactive
SMILES: O=C1NCC[C@H]1N1CC[C@@H](c2ccc(O)cc2)[C@H](F)C1

Ki [8]: 1.4 nM
pKa [9]: 6.8
concentration [11]: 70 nM
fraction unbound [12]: 0.1
IC50 [13]: 4.2 nM
concentration [2]: 150 nM
Activity (Mus musculus [14]): Dose-dependent effect
concentration [15]: 340 nM
fraction unbound [19]: 0.12
fraction unbound [20]: 0.11
SMILES: O=C1[C@H](N2CCC(c3ccc(O)cc3)CC2)CCN1Cc1ccc(F)cc1
Occ (Mus musculus [10]): 60%
IC50 [3]: 620 nM
Occ (Mus musculus [16]): 95%
Activity (Mus musculus [17]): Dose-dependent effect
minimal effective dose (Mus musculus [17]; CD-1, iv, read-out: MED): 0.56 mg/kg
Occ (Mus musculus [18]): 75%

concentration [2]: 2500 nM
SMILES: Cc1ccc(CN2CC[C@@H](N3CCC(c4ccc(O)cc4)C(F)(F)C3)C2=O)cc1 (stereo not given in full)
Occ (Mus musculus [1]): 93%
IC50 [3]: > 30000 nM

Ki [8]: 11 nM
concentration [2]: 1200 nM
SMILES: O=C1[C@H](N2CC[C@@H](c3ccc(O)cc3)[C@H](F)C2)CCN1Cc1ccc(F)cc1
Occ (Mus musculus [1]): 81%
IC50 [3]: > 5000 nM
